Columns and labels:
[1] = molecular target: T1, KRAS G12S 1-169 (His-tagged, GDP-loaded) (Homo sapiens, UniProt P01116, G12S); assay: Covalent modification of KRAS protein by intact-protein LC-MS; assay type: binding; conditions: for % G12S Modification at 24 hr.: KRAS G12S
T1 construct: His -tagged GDP-loaded G12S 1-169; made in house; host or cells: E. coli, e.g. BL21 (DE3)
In short: (§1)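 Percent modification is derived from deconvoluted intact-protein LC-ESI-MS peak intensities of adducted versus unmodified KRAS. GDP-loaded His-tagged KRAS 1-169 (~2 μM, HEPES buffer at physiological conditions) was exposed to compound for 24 hrs at room temperature, then quenched with formic acid before C4 reversed-phase separation.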

[2] = molecular target: T2, KRAS G12D 1-169 (His-tagged, GDP-loaded) (Homo sapiens, UniProt P01116, G12D); assay: as above; assay type: binding; conditions: comparable or same conditions as K-Ras G12S
T2 construct: His -tagged GDP-loaded G12D 1-169; made in house; host or cells: E. coli, e.g. BL21 (DE3)
In short: as §1

in vitro = conditions: microsomes, pH 7.4
Method: The metabolic stability of a test compound is assayed at 37° C. using pooled liver microsomes (mouse or human liver microsomes). An aliquot of 10 μL of 50 μM test compound is mixed with 490 μL of 0.611 mg/mL liver microsomes, then 50 μL of the mixtures are dispensed to the 96 well tubes and warmed at 37° C. for 10 minutes. The reactions are initiated by adding 50 μL of the pre-warmed NADPH regeneration system solution (add 1.2 μL solution, 240 μl solution B, mix with 10.56 ml KPBS) and then incubated at 37° C. The final incubation solution contains 100 mM potassium phosphate (pH 7.4), 1.3 mM NADP+, 3.3 mM glucose 6-phosphate, 0.4 Unit/mL of glucose 6-phosphate dehydrogenase, 3.3 mM magnesium chloride, 0.3 mg/mL liver microsomes and 0.5 μM test article. After 0, 15, 30 and 60 minutes in a shaking incubator, the reactions are terminated by adding 100 μL of acetonitrile containing 200 nM buspirone as an internal standard. All incubations are conducted in duplicate. […] Samples are then centrifuged at 3500 rpm for 10 minutes (4° C.) using Sorvall Legend XRT Centrifuge (Thermo Scientific, GE). Supernatants (40 μL) are transferred into clean 96-deep well plates. Each well is added with 160 μL of ultrapure water (Milli-Q, Millipore Corporation) with 0.1% (v/v) formic acid (Fisher Chemical), mixed thoroughly and subjected to LC/MS/MS analysis in MRM positive ionization mode.
All the samples are measured using a mass spectrometer (QTrap 5500 quadrupole/ion trap) coupled with a Shimadzu HPLC system. The HPLC system consisted of a Shimadzu series degasser, binary quaternary gradient pumps, column heater coupled to an autosampler, and a Phenomenex Gemini-NX, C18, 3.0 μm or Phenomenex Lunar, C8, 5.0 μM HPLC column (Phenomenex, Torrance, CA), and eluted with a mobile phase gradient consisting of Solution A (0.1% formic acid water) and Solution B (0.1% formic acid acetonitrile). The column temperature is maintained at 40° C. All the analytes are detected with positive-mode electrospray ionization (ES+).
The half-life for the metabolic degradation of the test compound is calculated by plotting the time-course disappearance of the test compound during the incubation with liver microsomes. Each plot is fitted to a first-order equation for the elimination of the test compound (% remaining compound) versus time using non-linear regression (Equation 1).
where Ct is the mean relative substrate concentration at time t and C0 is the initial concentration (0.5 μM) at time 0. Note that the area ratio of the substrate peak to an internal standard peak is proportional to the analyte concentration and is used for regression analysis to derive a value of k.

SMILES	K-Ras12S engagement after 24-hour treatment ([1]; 24-hour treatment)	% G12S Modification at 24 hr. [1]	covalent labeling of K-Ras G12D [2]	half-life at 0.5 μM (in vitro)
N#Cc1cn(C(=O)N2C3CCC2CN(c2nc(OC[C@@]45CCCN4C[C@H](F)C5)nc4c(F)c(-c5ccc(F)c6sc(N)nc56)c(Cl)cc24)C3)cn1 [Compound A123, 1-(3-(7-(2-amino-7-fluorobenzo-[d]thiazol-4-yl)-6-chloro-8-fluoro-2-(((2R,7aS)-2-fluoro-tetrahydro-1H-pyrrolizin-7a(5H)-yl)methoxy)quinazolin-4-yl)-3,8-diazabicyclo[3.2.1]-octane-8-carbonyl)-1H-imid-azole-4-carbonitrile]	++ (++: indicates between 1% to 20% labelling)	++ (++ indicates between about 1%-20% labelling)	–	–
N#Cc1c(N)sc2c(F)ccc(-c3c(Cl)cc4c(N[C@H]5C[C@H]6CC[C@@H](C5)N6C(=O)n5cncn5)nc(OC[C@@]56CCCN5C[C@H](F)C6)nc4c3F)c12 [Compound A257, 4-(4-(((1R,3r,5S)-8-(1H-1,2,4-triazole-1-carbonyl)-8-aza-bicyclo-[3.2.1]octan-3-yl)-amino)-6-chloro-8-fluoro-2-(((2R,7aS)-2-fluorotetrahydro-1H-pyrrolizin-7a(5H)-yl)meth-oxy)quinazolin-7-yl)-2-amino-7-fluorobenzo[b]thiophene-3-carbonitrile]	–	++ (++ indicates between about 1%-20% labelling)	essentially no detectable labeling	–
C#Cc1c(F)ccc2cc(O)cc(-c3ncc4c(N5CC6CCC(C5)N6C(=O)n5cnc(C#N)c5)nc(OC[C@@]56CCCN5C[C@H](F)C6)nc4c3F)c12 [Compound A255, 1-(3-(7-(8-ethynyl-7-fluoro-3-hydroxynaphthalen-1-yl)-8-fluoro-2-(((2R,7aS)-2-fluoro-tetrahydro-1H-pyrrolizin-7a(5H)-yl)methoxy)pyrido[4,3-d]pyrimidin-4-yl)-3,8-diaza-bicyclo[3.2.1]octane-8-carbon-yl)-1H-imidazole-4-carbonitrile]	–	++ (++ indicates between about 1%-20% labelling)	essentially no detectable labeling	–
N#Cc1c(N)sc2c(F)ccc(-c3c(Cl)cc4c(N5CCN(C(=O)n6cncn6)CC(F)(F)C5)nc(OC[C@@]56CCCN5C[C@H](F)C6)nc4c3F)c12 [Compound A280, 2-amino-4-(6-chloro-4-(6,6-difluoro-4-(1H-1,2,4-triazole-1-carbonyl)-1,4-diazepan-1-yl)-8-fluoro-2-(((2R,7aS)-2-fluoro-tetrahydro-1H-pyrrolizin-7a(5H)-yl)methoxy)quinazolin-7-yl)-7-fluorobenzo[b]thio-phene-3-carbonitrile]	–	+++ (+++ indicates greater than 20% labelling)	essentially no detectable labeling	–
N#Cc1c(N)sc2c(F)ccc(-c3ncc4c(N5CC6CCC(C5)N6C(=O)n5ccnc5C#N)nc(OC[C@@]56CCCN5C[C@H](F)C6)nc4c3F)c12 [Compound A165, 1-(3-(7-(2-amino-3-cyano-7-fluorobenzo[b]thiophen-4-yl)-8-fluoro-2-(((2R,7aS)-2-fluoro-tetrahydro-1H-pyrrolizin-7a(5H)-yl)methoxy)pyrido[4,3-d]pyrimidin-4-yl)-3,8-diaza-bicyclo[3.2.1]octane-8-carbon-yl)-1H-imidazole-2-carbonitrile]	–	–	essentially no detectable labeling	> 10 min
N#Cc1nccn1C(=O)N1C2CCC1CN(c1nc(OC[C@@]34CCCN3C[C@H](F)C4)nc3c(F)c(-c4ccc(F)c5sc(N)nc45)c(Cl)cc13)C2 [Compound A170, 1-(3-(7-(2-amino-7-fluorobenzo-[d]thiazol-4-yl)-6-chloro-8-fluoro-2-(((2R,7aS)-2-fluoro-tetrahydro-1H-pyrrolizin-7a(5H)-yl)methoxy)quinazolin-4-yl)-3,8-diazabicyclo[3.2.1]-octane-8-carbonyl)-1H-imid-azole-2-carbonitrile]	–	++ (++ indicates between about 1%-20% labelling)	–	–
C#Cc1c(F)ccc2cc(O)cc(-c3ncc4c(N5C6COCC5CN(C(=O)n5cc(C#N)cn5)C6)nc(OC[C@@]56CCCN5C[C@H](F)C6)nc4c3F)c12 [Compound A226, 1-(9-(7-(8-ethynyl-7-fluoro-3-hydroxynaphthalen-1-yl)-8-fluoro-2-(((2R,7aS)-2-fluoro-tetrahydro-1H-pyrrolizin-7a(5H)-yl)methoxy)pyrido[4,3-d]pyrimidin-4-yl)-3-oxa-7,9-diazabicyclo[3.3.1]nonane-7-carbonyl)-1H-pyrazole-4-carbo-nitrile]	–	–	–	> 10 min
C#Cc1c(F)ccc2cc(O)cc(-c3ncc4c(N5CC6CCC(C5)N6C(=O)n5cncn5)nc(OC[C@@]56CCCN5C[C@H](F)C6)nc4c3F)c12 [Compound A234, (3-(7-(8-ethynyl-7-fluoro-3-hydroxynaphthalen-1-yl)-8-fluoro-2-(((2R,7aS)-2-fluoro-tetrahydro-1H-pyrrolizin-7a(5H)-yl)methoxy)pyrido[4,3-d]pyrimidin-4-yl)-3,8-diaza-bicyclo[3.2.1]octan-8-yl)(1H-1,2,4-triazol-1-yl)methanone]	–	–	–	> 10 min

From US20240368191A1, “HETEROCYCLIC COMPOUNDS AND USES THEREOF” (Kumquat Biosciences Inc., priority 2021, published 2024)
